# Like-named read-outs stand apart in the source and are kept apart here.
# Experiments:
# [1] = test system: healthy volunteers; assay: Phase 1b clinical trial: lower esophageal sphincter pressure (LESP) by manometry; format: in vivo, human; settings: 0.5 mg, 0.8 mg and 1.4 mg
# Experimental: After randomization, subjects received a first dose of study medication (Day 1). The medication was administered under supervision and the subjects were then evaluated by manometry to assess LES position and pressure and by a multichannel intraluminal impedance and pH (MII-pH) procedures to measure the number of reflux events following ingestion of a refluxogenic meal (sausage and egg breakfast sandwich and 8 oz. cup of coffee). The supervised dose was the only dose administered on this initial day of testing (Day 1). Subjects continued dosing for a further five day, then had one day with no study medication before returning for the next visit on Day 8. The same procedure was performed on Day 8 of the treatment period (i.e., the first day of the second dosing period). […]
# (§1) • Primary: Reduction in esophageal reflux during a provocative procedure (following a refluxogenic meal) as measured by MII-pH; • Secondary: • (a) Change in reflux related symptoms (heartburn, regurgitation, acid taste) associated with ingestion of a refluxogenic meal; and • (b) Change in lower esophageal sphincter pressure.
# [2] = test system: healthy volunteers; assay: Phase 1b clinical trial: reflux related symptoms (heartburn, regurgitation, acid taste) associated with refluxogenic meal; format: in vivo, human; settings: 0.5 mg, 0.8 mg and 1.4 mg
# Experimental: In addition to assessment of the LESP and number of reflux events, subjects were also assessed on Days 1 and 8 to determine the frequency of the following symptoms: heartburn; regurgitation; and acid taste associated with the refluxogenic meal.
# as §1
# [3] = test system: Humans; settings: cited from earlier work
# [4] = test system: healthy volunteers; assay: Phase 1b clinical trial: safety and tolerability (vital signs, adverse events, clinical laboratory testing, ECGs); format: in vivo, human
# Source text: Characterize the safety and tolerability of DDP733 in volunteers.
# Safety measurements included monitoring of vital signs and adverse events, clinical laboratory testing and performance of electrocardiograms (ECGs).
# [5] = test system: gastric acid; settings: cited from earlier work
# [6] = test system: healthy volunteers; assay: Phase 1b crossover clinical trial: reflux events measured by multichannel intraluminal impedance and pH (MII-pH) after a refluxogenic meal; format: in vivo, human
# Experimental: The clinical trial reported here was a Phase 1b, randomized, double-blind placebo-controlled, crossover study. In the Study, 28 healthy volunteers were administered doses of DDP733 (0.5, 0.8 and 1.4 mg) and placebo and then given a refluxogenic meal. For a period of two hours after completion of the refluxogenic meal, reflux events were measured using intraesophageal impedance.
# Phase 1b, randomized, double-blinded, placebo controlled, crossover study.
# Three Study Periods: Total Number of Visits=4 • (1) Ten-day screening period (2 visits); • (2) Two week treatment period (Days 1-14) (2 visits: Day 1 which is on the same day as the second screening visit, and Day 8); and • (3) One day end of study period (1 visit).
# Subjects were randomized into a treatment group on Day 1 (the same day as visit 2 of the screening period). For the completed study, each subject was exposed to one of the dose levels of DDP733 (i.e., 0.5 mg, 0.8 mg and 1.4 mg) and to placebo in randomized sequence to complete approximately one week of dosing with each of the two dosing regimens (DDP733 and placebo). The six treatment sequences were:
# For example, there were 7 subjects in the study who received the 0.5 mg dose of DDP733. At the commencement of dosing period 1, three subjects in the 0.5 mg group received placebo and 4 subjects received 0.5 mg of drug. […]
# After randomization, subjects received a first dose of study medication (Day 1). The medication was administered under supervision and the subjects were then evaluated by manometry to assess LES position and pressure and by a multichannel intraluminal impedance and pH (MII-pH) procedures to measure the number of reflux events following ingestion of a refluxogenic meal (sausage and egg breakfast sandwich and 8 oz. cup of coffee). […]
# as §1, with “pressure. […]” for “pressure.”
compound,measurement,setting,value
"O=C(N[C@H]1CN2CCC1CC2)c1c[nH]c2ccsc2c1=O [DDP733, (R)—N-1-azabicyclo[2.2.2]oct-3-yl-4,7-dihydro-7-oxothieno[3,2-b]pyridine-6-carboxamide]",LESP versus placebo (secondary endpoint),[1],no statistically significant differences
same,reflux related symptoms versus placebo (secondary endpoint),[2],no statistically significant differences
same,effect on increasing gastric emptying,[3]; 0.2 mg dose,no significant effect
same,effect on the fundus,[3]; 0.2 mg dose,no significant effect
same,effect on increasing gastric emptying,[3]; 1.0 mg dose,no significant effect
same,effect on the fundus,[3]; 1.0 mg dose,no significant effect
same,effect on gastric emptying,[3]; 4.0 mg dose,delays gastric emptying
same,effect on the fundus,[3]; 4.0 mg dose,relaxes the fundus
same,adverse events (AEs) leading to discontinuation,[4]; all doses,no adverse events (AEs) leading to discontinuation
same,significant adverse events (SAEs),[4]; all doses,no significant adverse events (SAEs) reports
same,safety and tolerability,"[4]; all doses (0.5, 0.8, 1.4 mg)",safe and well tolerated
same,time to resolution of drug related adverse events,[4]; did not require medication,1 to 5 days
same,liver or cardiac abnormalities,"[4]; human, in vivo",No liver or cardiac abnormalities were observed
same,"severity of drug related adverse events (nausea, vomiting, pruritus, rash, rash macular, flush/hot flush, abdominal pain/discomfort)","[4]; human, in vivo",mild/moderate
same,gastric acid suppressing activity,[5],has gastric acid suppressing activity
same,statistical significance on primary clinical endpoint of reduction in the number of reflux events versus placebo,"[6]; 0.5 mg dose, p=0.0313, Wilcoxon signed-rank test",achieved statistical significance
same,reduction in the number of reflux events versus placebo,[6]; 0.8 mg dose,did not show a statistically significant reduction
same,reduction in the number of reflux events versus placebo,[6]; 1.4 mg dose,did not show a statistically significant reduction

# Reference: patent US20110275667A1, “COMPOSITIONS USEFUL FOR TREATING GASTROESOPHAGEAL REFLUX DISEASE” (EDUSA Pharmaceuticals, Inc., priority 2007, published 2011)
